# Test results from patent publication US10865176B2, “Small molecule modulators of microRNA-34a” (The Chinese University of Hong Kong, priority 2012, dated 2020).
# Marks after values point to notes of the source that are not given here.
# Legend:
# miR-34a [1] = test: qRT-PCR of primary and mature miR-34a in HCC cells; assay type: cell-based, human; details: HCC cells (HepG2, FIG. 4B)
# Experimental: (§1) Total RNA from cell cultures and HCC xenograft tumors were extracted using Trizol (Invitrogen) according to manufacturer's protocols. Total RNAs were dissolved into nuclease-free ddH2O. For protein extraction, cells and HCC xenograft tumors were lysed in 1×RIPA buffer with 1 mM PMSF and 1× complete protease inhibitor cocktail (Roche, Indianapolis, Ind.). Both RNA and protein were stored at −80° C.
# (§2) Total RNA was reversely transcribed into cDNAs using High Capacity cDNA Reverse Transcription Kit (Applied Biosystems, Foster city, CA, USA) and nude RT kit (Invitrogen) individually. qRT-PCR was performed using SYBR Green PCR master mix (TaKaRa, Dalian, China). GAPDH was used as an endogenous control. For measuring miR-34a expression level, qPCR was performed by using SYBR Green PCR master mixture (Invitrogen) and U6 was used as the internal control. All samples were normalized to internal controls and fold changes were calculated by relative quantification (2^−ΔΔct).
# HepG2 xenografted tumor = test: HepG2 xenografted nude mice model, tumor growth; assay type: in vivo; details: 50 mg/kg, gavage once every two days
# Experimental: (§3) Tumor volume was calculated as [(Length×Width×Height)[…]]. Treatment was continued for 24 d. Finally, all mice were sacrificed and tumors were excised. Tumor weight was recorded.
# miR-34a [2] = test: qRT-PCR of pri-miR-34a and miR-34a in xenografted tumors; assay type: in vivo, nude mice; details: excised tumors after 24 d gavage
# Experimental: as §1, §2, §3
# Cyclin D1 and Bcl-2 = test: qRT-PCR of Cyclin D1 and Bcl-2 in xenografted tumors; assay type: in vivo, nude mice; details: excised tumors after 24 d gavage
# Experimental: as §1, §2, §3
# [3] = HepG2 xenograft model, survival, body weight and side effects
# Experimental: 5×10^6 HepG2 cells were suspended in 100 μl serum-free medium and subcutaneously (s.c.) inoculated into the dorsal flanks of nude mice. When tumors reached 5-10 mm in diameter, mice were randomly divided into 4 groups (n=5). […] Vehicle alone and Sorafenib were used as the negative and positive control respectively. Tumor volumes and body weight were measured once every two days. Tumor volume was calculated as [(Length×Width×Height)±2]. Treatment was continued for 24 d. Finally, all mice were sacrificed and tumors were excised. Tumor weight was recorded.
# miR-34a [4] = test: miR-34a reporter luciferase assay in Huh7 cells; assay type: cell-based, human
# Experimental: The pMIR-REPORT™ luciferase plasmid (1 μg; Ambion) was sequentially double digested with Sac I and Hind III (10 units each, 50 μL reaction; NEB) and was gel purified. Double stranded insert DNA encoding the miR-34a binding site was synthesized through standard oligonucleotide synthesis methods. The sequences used were Forward: 5′z […]-3′ (SEQ ID NO:1) and Reverse: 5′: […]-3′ (SEQ ID NO:2). The insert was hybridized (heated to 95° C., and cooled to 4° C. over 30 min, then held at 4° C. for 60 min) and ligated with T4 ligase (200 units, 10 μL reaction, 1:10 vector/insert ratio; NEB) into the digested pMIR-REPORT™ luciferase vector. Positive colonies were selected by PCR colony screens, and the construction of the pMIR-REPORT™-miR-34a vector was confirmed by double enzyme digestion with NheI, MluI and Nhe I, Hind III (NEB). The luciferase reporter vector containing the miR-34a promoter was kindly provided by Prof. Mendell J T from Johns Hopkins University (21).
# Huh7 cells were seeded into 96-well plates 12 h prior to transfection. MiR-34a reporter and the control vector were respectively co-transfected with Renilla luciferase pRL-SV40 into Huh7 cells. All transfections were performed in triplicate. The cells were incubated at 37° C. for 4 h followed by the replacement of transfection media with standard DMEM growth media with 10 μM of the natural products library (NPL) compounds (Tim Tec; 0.1% DMSO final concentration). This library contains 640 compounds including natural products and their derivatives. After 48 h of incubation, the media was removed and cells were lysed and the luciferase signals were measured by luciferase assay as described below.
# MiR-34a reporter, the luciferase reporter vector containing miR-34a promoter and the control vectors were transfected into HCC cells 12 h before compound treatment. The Renilla luciferase vector pRL-SV40 was co-transfected as an internal control. HCC cells were then treated with compound for 48-72 h. The luciferase activity was measured by Dual Luciferase Reporter Assay (Promega) with a Wallac VICTOR^3V luminometer. The ratio of firefly luciferase to Renilla expression was calculated for each of the triplicates.
structure (smiles),measurement,setting,value
"CNC(=O)c1cc(Oc2ccc(NC(=O)Nc3ccc(Cl)c(C(F)(F)F)c3)cc2)ccn1 [Sorafenib, reference compound]",miR-34a expression after chemotherapeutic drugs,miR-34a [1],no effect
same,Tumor growth inhibition (%),HepG2 xenografted tumor; 24 d,84.22%
same,Tumor weight (g),"HepG2 xenografted tumor; day 24, mean (95% CI)",0.186 (95% CI = 0.14 − 0.23)** g
same,pri-miR-34a and miR-34a levels in xenografted tumors,miR-34a [2],no changes
same,Cyclin D1 and Bcl-2 expression in xenografted tumors,Cyclin D1 and Bcl-2,no changes
same,Body weight (g) initial,"[3]; 50 mg/kg group, initial, mean (95% CI)",20.00(95% CI = 18.76 − 21.24)/ g
same,Body weight (g) end,"[3]; 50 mg/kg, end of 24 d treatment, mean (95% CI)",24.00(95% CI = 21.22 − 26.78) g
same,Mice survival (n) initial/end,"[3]; 50 mg/kg, gavage once every two days, 24 d",5/5
"O=c1[nH]cc(F)c(=O)[nH]1 [5-Fluorouracil, reference compound]",miR-34a expression after chemotherapeutic drugs,miR-34a [1],no effect
"COc1cccc2c1C(=O)c1c(O)c3c(c(O)c1C2=O)C[C@@](O)(C(=O)CO)C[C@@H]3O[C@H]1C[C@H](N)[C@H](O)[C@H](C)O1 [Doxorubicin, reference compound]",miR-34a expression after chemotherapeutic drugs,miR-34a [1],no effect
"N.N.[Cl][Pt][Cl] [Cisplatin, reference compound]",miR-34a expression after chemotherapeutic drugs,miR-34a [1],no effect
"COc1ccc(-c2cc(=O)c3c(O)cc(O)cc3o2)cc1 [Acacetin, 5,7-dihydroxy-4′-methoxyflavone]","function as miR-34a activator, re-assayed in triplicate with miR-34a reporter system",miR-34a [4],functions as the miR-34a activators are confirmed
